Measurements published in patent US20210122771A1, “NEW MOLECULAR TWEEZERS AGAINST NEUROLOGICAL DISORDERS AND VIRAL INFECTIONS” (The Regents of the University of California, priority 2018, published 2021).
pKd: −log10 of the molar value.

Experiments:
KAA = format: binding; details: fluorometric titration in aqueous buffer at neutral pH; read-out: Dissociation constant Kd, KAA
RGD = format: binding; details: fluorometric titration in aqueous buffer at neutral pH; read-out: Dissociation constant Kd, RGD
[1] = PK screening in mice, three routes, two time points; details: mouse, in vivo
Experimental: Each compound was administered to the mice at 2 mg/kg intravenously (I.V.), 2 mg/kg subcutaneously (S.C.), or 10 mg/kg orally (P.O.).

Full 24-h PK profile = format: in vivo, mice; details: mouse, in vivo
Experimental: Based on the 2-time-point screen results, a full 24-h PK profile has been obtained for compounds 13 and 14. In these experiments, the blood and brain levels were measured at 7 time points—0.3, 0.6, 1, 2, 4, 8, and 24 h. Data for 1 are given for reference.

In the case of `C#CCCOP(=O)(O)Oc1c2c(c(OP(=O)(O)O)c3c1C1CC3c3cc4c(cc31)C1CC4c3ccccc31)C1CC2c2cc3c(cc21)C1CC3c2ccccc21` [Compound 12], the pKd (KAA) was 4.70 and the pKd (RGD) was 4.22.

In the case of `COc1c2c(c(OP(=O)([O-])O)c3c1C1CC3c3cc4c(cc31)C1CC4c3ccccc31)C1CC2c2cc3c(cc21)C1CC3c2ccccc21.[Na+]` [Compound 14], the “Bioavailability, 40 min” value ([1]; 2 mg/kg) was 281.1%, the “Bioavailability, 4 h” value ([1]; 2 mg/kg) was 291.2% and the “Bioavailability, 40 min” value ([1]; 10 mg/kg) was 3.9%. For the same compound, the “Bioavailability, 4 h” value ([1]; 10 mg/kg) was 20.3%, the “BBB penetration when administered I.V. (compared to 1)” value ([1]; iv) was “substantially increased” and the “BBB penetration, 40 min” value ([1]; iv, 2 mg/kg) was 10.0%. For the same compound, the “BBB penetration, 4 h” value ([1]; iv, 2 mg/kg) was 65.9%, the “BBB penetration, 40 mm” value ([1]; po, 10 mg/kg) was 6.1% and the “BBB penetration, 4 h” value ([1]; po, 10 mg/kg) was 2.6%. For the same compound, the “BBB penetration, 40 min” value ([1]; sc, 2 mg/kg) was 0.1%, the “BBB penetration, 4 h” value ([1]; sc, 2 mg/kg) was 0.4% and the “BBB penetration relative to compound 1” value (Full 24-h PK profile) was “improved”. For the same compound, the “Blood AUC” value (Full 24-h PK profile; iv) was 1880, the “Blood T1/2” value (Full 24-h PK profile; iv) was 1.7 h and the “Brain AUC” value (Full 24-h PK profile; iv) was 73.2. For the same compound, the “Brain T1/2” value (Full 24-h PK profile; iv) was 0.8 h, the LogBB (Full 24-h PK profile; iv) was −1.41 and the “Blood AUC” value (Full 24-h PK profile; po) was 16.1. For the same compound, the “Blood Bioavailability” value (Full 24-h PK profile; po) was 0.9%, the “Blood T1/2” value (Full 24-h PK profile; po) was 4.4 h and the “Brain AUC” value (Full 24-h PK profile; po) was 13.7. For the same compound, the “Brain T1/2” value (Full 24-h PK profile; po) was 6.5 h, the LogBB (Full 24-h PK profile; po) was −0.07 and the “oral bioavailability relative to compound 1” value (Full 24-h PK profile; po) was “improved”. The “Blood AUC” value (Full 24-h PK profile; sc) was 1147, the “Blood Bioavailability” value (Full 24-h PK profile; sc) was 61.0% and the “Blood T1/2” value (Full 24-h PK profile; sc) was 14.8 h. For the same compound, the “Brain AUC” value (Full 24-h PK profile; sc) was 4.4 and the LogBB (Full 24-h PK profile; sc) was 0.
